Measured values from patent US6727227B1, “Tetrapetide revealing geroprotective effect, pharmacological substance on its basis, and the method of its application” (Obschestvo S Ogranichennoi Otvetstven-Nostiju “Klinika …, priority 2002, dated 2004).
Marks after values point to notes of the source that are not given here. Residues, ends and D or L forms follow the SMILES beside them.

Key:
white outbred rats = experiment: Subacute toxicity, 90 days; format: in vivo; details: intramuscularly daily for 90 days, 1 μg/kg, 0.3 mg/kg, 3 mg/kg
Method: Experimental animals were exposed daily to a single administration of the drug intramuscularly for 90 days in doses 1 μg/kg, 0.3 mg/kg, 3 mg/kg in 0.5 ml of sodium chloride solution. Animals of the control group were administered with the same amount of sodium chloride.
Within the whole period of study the animals were under daily observation. Behaviour of the animals, their rations and water consumption, the state of hair integument and mucous membranes were registered. The animals were weighed weekly. Prior to and on the 30th, 60th, and 90th days of the drug administration the morphological composition and properties of the peripheral blood were examined. Upon the experiment completion biochemical and coagulologic indices of blood were investigated.

[1] = tested on: Drosophila melanogaster of HEM strain; experiment: Life span and ageing rate, HEM strain; format: in vivo; details: for 90% (the age, which 90% of the individuals reach) / ALS (average life span) / MRDT (mortality-rate doubling time) / Me (median life span) / R · 10^−2 (parameter of Gomperz equation): 0.00001% of medium
From the text: L-Ala-L-Glu-L-Asp-Gly tetrapeptide (SEQ ID NO: 1) was applied in Drosophila melanogaster larvae of the 2nd age of HEM strain selected for a high ageing rate (20). HEM strain is characterised by the unique dynamics of embryonic mortality, which consists in an increased frequency of early embryonic lethal outcomes from 65% on the 1st day of egg-laying up to 95% on the 4th day, in a reduced average life span (29 days), and in a raised intensity of lipid peroxide oxidation.
L-Ala-L-Glu-L-Asp-Gly tetrapeptide (SEQ ID NO: 1) was added in proportion 0.00001% of the culture medium weight, which was an extremely low dose. The doses described in literature on the influence of various substances on Drosophila melanogaster usually ranged from 0.001 to 0.01%.

catalase = experiment: Catalase activity in homogenates of 14 days old flies of LA strain; format: in vivo, Drosophila melanogaster of LA strain
Method: The impact produced by L-Ala-L-Glu-L-Asp-Gly tetrapeptide (SEQ ID NO: 1) on catalase activity, the content of the products of lipid peroxide oxidation (LPO), life span, and the ageing rate were studied in Drosophila melanogaster of LA strain.
L-Ala-L-Glu-L-Asp-Gly tetrapeptide (SEQ ID NO: 1) was applied in the larvae of the 3rd age in dose 0.00001% of the culture medium weight, which constituted approximately 0.015 mg/100 ml. Catalase activity was estimated by generally accepted methods in the homogenates of adult 14 days old flies. The experiment was carried out with a subsequent repetition.
Regression and dispersal analyses served as the basic technique of statistic processing. The authenticity of differences was confirmed by the method of minimal relevant diversity.

[2] = tested on: Drosophila melanogaster of EA strain; experiment: Life span and ageing rate, EA strain; format: in vivo
Method: Drosophila melanogaster of EA strain served as a model for studying the influence of L-Ala-L-Glu-L-Asp-Gly tetrapeptide (SEQ ID NO: 1) on catalase activity, tissue chemoluminescence, and life span.
One-day old flies were placed in test tubes, 10 individuals of the same sex in each. Every 5 to 7 days they were transferred to a fresh medium, taking into account the number of deceased individuals. The average and maximal life spans were defined. The ageing rate was calculated by the parameters of Gomperz equation.
L-Ala-L-Glu-L-Asp-Gly tetrapeptide (SEQ ID NO: 1) was applied in the larvae of the 3rd age in dose 0.00001% of the culture medium weight, which constituted approximately 0.015 mg/100 ml. Catalase activity and the intensity of chemoluminescence were estimated in the homogenates of adult 7-day old flies by generally accepted methods. The experiment was conducted with a subsequent 5 repetition.
Regression and dispersal analyses served as the basic technique of statistic processing.

[3] = tested on: blood anti-oxidation defence indices; experiment: Blood anti-oxidation defence indices in patients with age-related pathology; format: in vivo; details: 10 μg intramuscularly daily for 10 days
Method: The studied pharmacological substance was administered to 14 patients (34 to 69 years old) with age-related pathology (hypertension disease, ischemic heart disease, chronic gastritis, non-insulin-dependent diabetes mellitus) and reduction of the anti-oxidation defence indices in blood.
The substance containing L-Ala-L-Glu-L-Asp-Gly tetrapeptide (SEQ ID NO: 1) was administered intramuscularly in the form of an injection solution in a single daily dose of 10 μg per injection for 10 days.

C[C@H](N)C(=O)N[C@@H](CCC(=O)O)C(=O)N[C@@H](CC(=O)O)C(=O)NCC(=O)O [L-Ala-L-Glu-L-Asp-Gly tetrapeptide, L-alanyl-L-glutamyl-L-aspartyl-glycine] (H-AEDG-OH)
Side effects, subacute toxicity (white outbred rats): absence of side effects | 90% (the age, which 90% of the individuals reach) ([1]; females): 76 days | ALS (average life span) ([1]; females): 48 + days | MRDT (mortality-rate doubling time) ([1]; females): 3.9 | Me (median life span) ([1]; females): 48.0 days | R · 10^−2 (parameter of Gomperz equation) ([1]; females): 4.0 + days^−1 | 90% (the age, which 90% of the individuals reach) ([1]; males): 62 days | ALS (average life span) ([1]; males): 42 + 1.3 days | MRDT (mortality-rate doubling time) ([1]; males): 3.8 | Me (median life span) ([1]; males): 38.0 days | R · 10^−2 (parameter of Gomperz equation) ([1]; males): 4.5 + days^−1 | Increase of the average life span ([1]; versus control): 26% | Reduction of the population real ageing rate (Gomperz parameter) ([1]; versus control): 40% | Specific activity of catalase (catalase; females): 42.57 μmole H2O2/mg of protein per min. | Specific activity of catalase (catalase; males): 57.44* μmole H2O2/mg of protein per min. | ALS ([2]; females, Experiment 1): 16.4 ± 1.68 days | G 10^2 ([2]; females, Experiment 1): 3.6 ± 0.61* days^−1 | LSmax ([2]; females, Experiment 1): 39 days | LnR0 ([2]; females, Experiment 1): -3.1 ± 0.21 day⁻¹ | ALS ([2]; females, Experiment 2): 16.7 ± 0.70 days | G 10^2 ([2]; females, Experiment 2): 4.2 ± 1.68 days^−1 | LSmax ([2]; females, Experiment 2): 41 days | LnR0 (Gompertz parameter) ([2]; females, Experiment 2): -3.6 ± 0.41 day⁻¹ | ALS ([2]; males, Experiment 1): 10.8 ± 1.09 days | G 10^2 ([2]; males, Experiment 1): 3.3 ± 2.25 days^−1 | LSmax ([2]; males, Experiment 1): 39 days | LnR0 (Gompertz parameter) ([2]; males, Experiment 1): -2.3 ± 0.26 day⁻¹ | ALS ([2]; males, Experiment 2): 17.4 ± 0.88 days | G 10^2 ([2]; males, Experiment 2): 4.7 ± 0.94* days^−1 | LSmax ([2]; males, Experiment 2): 45 days | LnR0 (Gompertz parameter) ([2]; males, Experiment 2): -3.0 ± 0.28 day⁻¹ | Activity of superoxide dismutase, After treatment ([3]; before treatment 0.26): 0.61* conv. unit/mg of protein | Products of spontaneous lipid peroxide oxidation: Schiff bases, After treatment ([3]; before treatment 4.6 ± 0.3): 2.9 ± 0.2 μM/l | Products of spontaneous lipid peroxide oxidation: conjugated hydroperoxides, After treatment ([3]; before treatment 7.3 ± 0.6): 2.5 ± 0.2 μM/l
